This is an account of results in paper PMC6143625, “A high throughput screen for next-generation leads targeting malaria parasite transmission” (Nature Communications, 2018).

For experiment [1], the system named is P. falciparum stage V male gametocytes (male gamete formation). As to the kind of experiment: P. falciparum dual gamete formation assay (Pf DGFA), male readout (exflagellation), 48 h carry-over format. The class given is cell-based, Plasmodium falciparum NF54. The settings on record: for %Inhibition Male @2uM: primary screen, 48 h incubation, single replicate; for Male IC50 / IC50: SAR, Fig. 6 and Fig. 7; for IC50: Plasmodium falciparum, read-out: Male IC50; for Selectivity: parasite selectivity compared to Tox50 in HepG2 cells. On the procedure:
(§1) P. falciparum NF54 strain (originally isolated from an imported malaria case in the Netherlands in the 1980s; BEI Resources, cat. no. MRA-1000) asexual and sexual stages culture was performed as previously described. Gametocyte cultures were initiated at 1% asexual ring stage parasitaemia and 4% haematocrit in 40 ml final volume. To induce gametocyte production, complete culture medium (CM) (RPMI 1640 supplemented with 25 mM HEPES, 50 µg ml^−1 hypoxanthine, 2 g l^−1 NaHCO3 and 10% pooled human male type A+ serum) was replaced daily for 14 days without fresh erythrocyte addition. Human serum was obtained from Interstate Blood Bank, A^+ serotype; no aspirin 2 h before drawing and no antimalarials 2 weeks before drawing. On day 14 after culture induction, gametocyte production was assessed by thin smear and Giemsa staining, and exflagellation accurately counted in a haemocytometer. Gametocyte cultures with >0.2% exflagellation (compared to total erythrocyte cell number) were deemed acceptable for use in the Pf DGFA. Note, all human biological samples were sourced ethically and their research use was in accord with the terms of the informed consents under an IRB/EC approved protocol.
(§2) In screening mode, the assay was performed as described in Delves et al.[35] with a mean Z′ factor of 0.56 ± 0.14 (SD) (male) and 0.71 ± 0.17 (SD) (female). Pooled mature gametocyte cultures with the capacity to yield >0.2% exflagellation (of total cells) were diluted in CM to 14 million cells per ml and so that 700,000 cells were dispensed in 50 µl into each well of the warmed 384-well screening plates. Parasites were incubated in the plates with compounds for 48 h in a humidified chamber under 92%N2/5% CO2/3% O2 gas mix before gamete formation was triggered by addition of 10 µl per well ookinete medium (RPMI 1640 supplemented with 25 mM HEPES, 50 µg ml^−1 hypoxanthine, 2 g l^−1 NaHCO3, 100 µM xanthurenic acid) containing 0.5 µg ml^−1 anti-Pfs25 clone 4B7 (BEI Resources, cat. no. MRA-315) conjugated to the fluorophore Cy3 (GE Healthcare), and also by cooling the plate at 4 °C for 4 min and then a further 5 min at 28 °C. Exflagellation was recorded immediately by brightfield microscopy using a Nikon Ti-E widefield microscope at ×4 objective, ×1.5 zoom, recording a 10-frame video time-lapse over 2 s for each well. Afterwards, plates were incubated in the dark at 28 °C for a further 24 h to allow female gametes to maximally express Pfs25 on their surface. Female gamete formation was recorded by single-image fluorescence microscopy using the same microscope and magnification as above. Exflagellation and female gamete formation were quantified by specific algorithms designed with the open-source ICY Image Analysis software.
(§3) Assay performance statistics, such as signal to background ratio, Z′ and robust 3×SD activity cut-off were calculated using templates in ActivityBase XE (IDBS, Guilford, Surrey, UK). Hit population analysis and visualisation were conducted using Spotfire DecisionSite (Spotfire, Inc., Somerville, Massachusetts). The pIC50 (−log IC50) values were obtained using the ActivityBase XE nonlinear regression function in the full curve analysis bundle. In screening mode, the Pf DGFA achieved a mean Z′ factor of 0.56 ± 0.14 (SD) (male) and 0.71 ± 0.17 (SD) (female).

Experiment [2] concerns P. falciparum stage V female gametocytes (female gamete formation). As to the kind of experiment: P. falciparum dual gamete formation assay (Pf DGFA), female readout (Pfs25 expression), 48 h carry-over format. Format: cell-based, Plasmodium falciparum NF54. The settings on record: primary screen, 2 uM, 48 h incubation, single replicate. The method, then:
as §1
as §2, with “Parasites were incubated in the plates with compounds for 48 h in a humidified chamber under” left out
as §3

With `Cc1ccc(-c2noc(C(C)NS(C)(=O)=O)n2)cc1` (stereo not shown) [DDD01025633], in experiment [1], the “%Inhibition Male @2uM” value is 37.79%. In addition, the “%Inhibition Female @2uM” value in experiment [2] was under 30%.

For the molecule `Cc1ccc(C(=O)N2CC[C@@]3(O)CCCC[C@H]3C2)cc1` [DDD01026498], in experiment [1], the “%Inhibition Male @2uM” value is under 30%. Also, the “%Inhibition Female @2uM” value in experiment [2] was determined as 36.05%.

On to `Cn1c(CN2CCCCCC2)cc(=O)c(O)c1CN1CCCC1` [DDD01027184], for which the “%Inhibition Male @2uM” value in experiment [1] was 31.50%. Moreover, the “%Inhibition Female @2uM” value in experiment [2] is reported as under 30%. For `NC(=O)Cn1c(CO)cnc1SCc1ccccc1Cl` [DDD01027486] the same measures were under 30% and 30.58%. For `O=C(Nc1ncnc2c1CCC2)c1cccc(F)c1` [DDD01027506] the same measures were under 30% and 33.11%. Regarding `COCCc1nnc(NC(=O)CSCc2ccccc2)o1` [DDD01027773], the “%Inhibition Male @2uM” value in experiment [1] came out at 33.86%. Also, in experiment [2], the “%Inhibition Female @2uM” value was under 30%. Take `O=S(=O)(c1ccccc1Br)N1CCC2(CC1)OCCS2` [DDD01027971]: in experiment [1], the “%Inhibition Male @2uM” value is listed as under 30%. Besides, the “%Inhibition Female @2uM” value in experiment [2] is 31.22%. For `C1CCN(c2nc(N3CCOCC3)nc3n[nH]nc23)CC1` [DDD01027997] the same measures were under 30% and 37.52%. For `Cc1cccc(CS(=O)(=O)NCc2nn(C)c3c2COCC3)c1` [DDD01028624] the same measures were under 30% and 40.92%.

Regarding `CNC(=O)[C@@H]1COC[C@H]2CN(C(=O)c3ccc(OC)cc3)C[C@H]21` [DDD01030727], in experiment [1], the “%Inhibition Male @2uM” value is under 30%. Also, in experiment [2], the “%Inhibition Female @2uM” value worked out at 30.90%. For `Cc1cnc(N2CCC[C@@H]3CN(CC(=O)N(C)C)C[C@@H]32)nc1` [DDD01031282] the same measures were under 30% and 34.01%. As for `O=C(Cc1ccsc1)N1C[C@@H]2OCCN(c3cnccn3)[C@@H]2C1` [DDD01031297], the “%Inhibition Male @2uM” value in experiment [1] is under 30%. In experiment [2], the “%Inhibition Female @2uM” value was found to be 38.82%. For `CCn1ncc2c1C(COC)N(C(=O)c1ccc3c(c1)OCO3)CC2` (stereo not shown) [DDD01031312] the same measures were under 30% and 34.92%. For `COCCN1CCO[C@@H]2CN(C(=O)NCc3cccnc3)CC[C@@H]2C1` [DDD01031413] the same measures were under 30% and 31.80%. For `c1cc(CNCC2Cn3nncc3CO2)co1` (stereo not shown) [DDD01031485] the same measures were under 30% and 38.17%. In the case of `Cc1ccc(CN2CCCC3(CCN(Cc4ccoc4)CC3)C2)cc1` [DDD01031609], in experiment [1], the “%Inhibition Male @2uM” value is under 30%. Also, the “%Inhibition Female @2uM” value in experiment [2] was 33.18%. For `Cc1ccc(N2CC[C@@H]3[C@@H]2CCN3C(=O)c2cscn2)nn1` [DDD01031738], in experiment [1], the “%Inhibition Male @2uM” value is on record as under 30%. In addition, in experiment [2], the “%Inhibition Female @2uM” value is 32.44%. For `CN1CCN(C(=O)c2cc3c(s2)CCN3C(=O)C2CC2)CC1` [DDD01031830] the same measures were under 30% and 50.73%. For `CO[C@H]1CC[C@H]2[C@H]1OCCN2Cc1ccc(F)c(F)c1` [DDD01032445] the same measures were 37.39% and under 30%. For `O=C(O)c1nnn(-c2cc(F)cc(F)c2)c1-c1ccncc1` [DDD01034739] the same measures were under 30% and 37.18%. `CC(=O)Nc1ccc(Br)cc1` [compound 7683]: in experiment [1], the “Male IC50” value is recorded as “Inactive”. Consider `O=C(CCl)Nc1ccccc1` [compound 11485], for which, in experiment [1], the IC50 stood at 2.41 µM and the Selectivity is on record as 21. For `Cc1ccc(NC(=O)CCl)cc1` [compound 27967] the same measures were 3.39 µM and 15. For `COc1cccc(NC(=O)CCl)c1` [compound 28667] the same measures were 2.21 µM and 14.

For the molecule `COc1ccc(NC(=O)CCl)cc1` [compound 31123], in experiment [1], the IC50 was 2.66 µM and the Selectivity was 24.

In the case of `CN(C(=O)CCl)c1ccccc1` [compound 75797], in experiment [1], the IC50 stood at 6.41 µM and the Selectivity came to 2. `Cc1ccccc1NC(=O)CCl` [compound 101479]: in experiment [1], the IC50 came out at 10.4 µM and the Selectivity amounted to 10. Consider `O=C(CCl)N1CCc2ccccc21` [compound 176897], for which, in experiment [1], the IC50 came out at 1.63 µM and the Selectivity came to 8.

Take `O=C(CCl)Nc1ccccc1Cl` [compound 222444]: in experiment [1], the IC50 was 11.2 µM and the Selectivity was 7.

As to `O=C(CCl)Nc1ccc(Cl)cc1Cl` [compound 225998], in experiment [1], the IC50 amounted to 4.03 µM and the Selectivity is 21. For `O=C(CCl)Nc1ccc(O)cc1` [compound 236323] the same measures were 1.95 µM and over 51. Turning to `Cc1cc(Cl)ccc1NC(=O)CCl` [compound 249708], in experiment [1], the IC50 was 5.84 µM and the Selectivity is on record as over 17. For `Cc1cccc(NC(=O)CCl)c1` [compound 296325] the same measures were 4.5 µM and 18.

`O=C(CCl)Nc1ccccc1O` [compound 350567]: the “Male IC50” value in experiment [1] was “Inactive”. For the molecule `O=C(Nc1ccc(Br)cc1)C(Cl)Cl` [compound 532122], the “Male IC50” value in experiment [1] is on record as “Inactive”. On the same count and under the same terms, as for `O=C1C(Cl)=C(Cl)C(=O)N1c1ccc(Br)cc1` [compound 779209], the entry is “Inactive”. As to `N#Cc1ccccc1NC(=O)CCl` [compound 819001], in experiment [1], the IC50 is 5.25 µM and the Selectivity is reported as over 19.

As to `NCC(=O)Nc1ccc(Br)cc1` [compound 871334], the “Male IC50” value in experiment [1] is on record as “Inactive”. As for `O=C(CCl)Nc1ccccc1F` [compound 1522874], in experiment [1], the IC50 was 3.26 µM and the Selectivity is recorded as over 31. For `Cc1cc(Br)ccc1NC(=O)CCl` [compound 2097895] the same measures were 4.77 µM and 4. In the case of `O=C(Nc1ccc(Br)cc1Cl)C(Cl)(Cl)Cl` [compound 2725563], the “Male IC50” value in experiment [1] is on record as “Inactive”. With `CC(C)c1cc(Br)ccc1NC(=O)CCl` [compound 4066920], in experiment [1], the IC50 worked out at 12.1 µM and the Selectivity worked out at 2. Take `Cc1cc(Br)ccc1NC(=O)CCCCl` [compound 19226390]: the “Male IC50” value in experiment [1] is “Inactive”.

Take `O=C(CCl)Nc1ccc(CO)cc1` [compound 22457525]: in experiment [1], the IC50 was determined as 2.08 µM and the Selectivity is reported as over 48. Regarding `COC(=O)Nc1ccc(NC(=O)CCl)cc1` [compound 43701226], the “Male IC50” value in experiment [1] was “Inactive”.

One may read the IC50 as the concentration that inhibits the measured activity by half.
